Laboratory results taken from patent publication US4652638A, “3-O-acyl-4"-deoxydesmycosin derivatives” (Toyo Jozo Kabushiki Kaisha, priority 1983, dated 1987).
≈ marks a conversion by molar mass, not a printed value. Where two headings read alike, the source gives them in different places.

Key:
Experiment in all cases: MIC (minimum inhibitory concentration)
Format in all cases: cell-based
[1] = test system: Micrococcus flavus ATCC 10240; conditions: ATCC10240
[2] = test system: Corynebacterium diphtheriae P.Y.8
[3] = test system: Staphylococcus aureus ATCC 6538P; conditions: ATCC6538P
[4] = test system: Sarcina lutea ATCC 9341; conditions: Micrococcus luteus, ATCC9341
[5] = test system: Streptococcus pyogenes 1022*
[6] = test system: Pseudomonas aeruginosa IAM 1095; conditions: IAM1095
[7] = test system: Staphylococcus aureus 0127*
[8] = test system: Staphylococcus aureus MS353 A0*; conditions: * clinical isolate, macrolide-resistant bacteria A group
[9] = test system: Staphylococcus aureus MS353
[10] = test system: Streptococcus faecalis 1501; conditions: Enterococcus faecalis
[11] = test system: Escherichia coli B
[12] = test system: Bacillus subtilis ATCC 6633; conditions: ATCC6633
[13] = test system: Staphylococcus epidermidis sp-al-1; conditions: SPAL1
[14] = test system: Staphylococcus aureus MS353 C36; conditions: MS353C36
[15] = test system: Salmonella typhosa H901; conditions: Salmonella enterica
[16] = test system: Shigella sonnei E33
[17] = test system: Streptococcus agalaactiae 1020
[18] = test system: Escherichia coli NIHJ-JC2; conditions: NIHJJC2
[19] = test system: Proteus vulgaris OX19
[20] = test system: Serratia marcescens
[21] = test system: Streptococcus pyogenes N.Y.5
[22] = test system: Shigella flexineri type 3a; conditions: TYPE3A
[23] = test system: Salmonella enteritidis Gaertner; conditions: Salmonella enterica
[24] = test system: Klebsiella pneumoniae ATCC 10031; conditions: ATCC10031
[25] = test system: Staphylococcus aureus 0119*
[26] = Sarcina lutea ATCC 9341, read-out: MIC
[27] = Escherichia coli B, read-out: MIC
[28] = Escherichia coli NIHJ-JC2, read-out: MIC
[29] = Micrococcus flavus ATCC 10240, read-out: MIC
[30] = Pseudomonas aeruginosa IAM 1095, read-out: MIC
[31] = Streptococcus faecalis 1501, read-out: MIC
[32] = Bacillus subtilis ATCC 6633, read-out: MIC
[33] = Staphylococcus epidermidis sp-al-1, read-out: MIC
[34] = Streptococcus agalaactiae 1020, read-out: MIC
[35] = Salmonella enteritidis Gaertner, read-out: MIC
[36] = Klebsiella pneumoniae ATCC 10031, read-out: MIC
[37] = Salmonella typhosa H901, read-out: MIC

SMILES	MIC ([1]; Micrococcus flavus)	MIC [2]	MIC [3]	MIC [4, 26]	MIC ([6]; Pseudomonas aeruginosa)	MIC ([7]; Staphylococcus aureus)	MIC [8]	MIC [9]	MIC [10]; 1501	MIC ([12]; Bacillus subtilis)	MIC ([13]; Staphylococcus epidermidis)	MIC [14]	MIC ([15]; TYPHOSA)	MIC [16]	MIC ([17]; Streptococcus, 1020)	MIC [19]	MIC [20]	MIC [21]	MIC [22]	MIC ([25]; Staphylococcus aureus)	other results
CC[C@H]1OC(=O)[C@H](C)[C@@H](O[C@H]2C[C@@](C)(OC)[C@@H](O)[C@H](C)O2)[C@H](C)[C@@H](O[C@@H]2O[C@H](C)C[C@H](N(C)C)[C@H]2O)[C@](C)(O)C[C@@H](C)C(=O)[C@H](C)[C@@H](O)[C@]1(C)O [Erythromycin, reference compound]	0.1 µg/mL (≈ 0.136 µM)	≤ 0.05 µg/mL	0.2 µg/mL (≈ 0.273 µM)	≤ 0.05 µg/mL	100 µg/mL (≈ 136 µM)	> 100 µg/mL	> 100 µg/mL	0.2 µg/mL (≈ 0.273 µM)	0.2 µg/mL (≈ 0.273 µM)	0.1 µg/mL (≈ 0.136 µM)	0.2 µg/mL (≈ 0.273 µM)	> 100 µg/mL	100 µg/mL (≈ 136 µM)	100 µg/mL (≈ 136 µM)	≤ 0.05 µg/mL	50 µg/mL (≈ 68.1 µM)	100 µg/mL (≈ 136 µM)	≤ 0.05 µg/mL	12.5 µg/mL (≈ 17 µM)	> 100 µg/mL	MIC ([5]; Streptococcus pyogenes): > 100 µg/mL; MIC [11, 27]: > 100 µg/mL; MIC [18, 28]: 100 µg/mL (≈ 136 µM); MIC ([23]; ENTERITIDIS): 100 µg/mL (≈ 136 µM); MIC ([24]; Klebsiella pneumoniae): 6.3 µg/mL (≈ 8.58 µM)
CCCC(=O)OC1CC(=O)OC(CC)C(COC2OC(C)CC(OC)C2OC)C=C(C)C=CC(=O)C(C)CC(CC=O)C(OC2OC(C)C(O)C(N(C)C)C2O)C1C (centres unmarked) [Example 3, 3-O-butyryl-4"-deoxydesmycosin]	–	–	0.4 µg/mL (≈ 0.484 µM)	≤ 0.05 µg/mL	–	–	–	0.4 µg/mL (≈ 0.484 µM)	–	–	–	0.2 µg/mL (≈ 0.242 µM)	> 100 µg/mL	> 100 µg/mL	–	–	–	≤ 0.05 µg/mL	50 µg/mL (≈ 60.5 µM)	–	MIC [1, 29]: ≤ 0.05 µg/mL; MIC ([2]; read-out: MIC): ≤ 0.05 µg/mL; MIC ([5]; Streptococcus pyogenes 1022, * clinical isolate, macrolide-resistant bacteria A group, read-out: MIC): 12.5 µg/mL (≈ 15.1 µM); MIC [6, 30]: > 100 µg/mL; MIC ([7]; Staphylococcus aureus 0127, * clinical isolate, macrolide-resistant bacteria A group, read-out: MIC): 25 µg/mL (≈ 30.3 µM); MIC [10, 31]: 0.2 µg/mL (≈ 0.242 µM); MIC [11, 27]: > 100 µg/mL; MIC [12, 32]: 0.1 µg/mL (≈ 0.121 µM); MIC [13, 33]: ≤ 0.05 µg/mL; MIC [17, 34]: 0.1 µg/mL (≈ 0.121 µM); MIC [18, 28]: > 100 µg/mL; MIC ([19]; read-out: MIC): 50 µg/mL (≈ 60.5 µM); MIC ([20]; read-out: MIC): > 100 µg/mL; MIC [23, 35]: > 100 µg/mL; MIC [24, 36]: 25 µg/mL (≈ 30.3 µM); MIC ([25]; Staphylococcus aureus 0119, * clinical isolate, macrolide-resistant bacteria A group, read-out: MIC): 25 µg/mL (≈ 30.3 µM)
CCC1OC(=O)CC(OC(=O)CC(C)C)C(C)C(OC2OC(C)C(O)C(N(C)C)C2O)C(CC=O)CC(C)C(=O)C=CC(C)=CC1COC1OC(C)CC(OC)C1OC (centres unmarked) [Example 4, 3-O-isovaleryl-4"-deoxydesmycosin]	–	–	0.4 µg/mL (≈ 0.476 µM)	≤ 0.05 µg/mL	–	> 100 µg/mL	> 100 µg/mL	0.4 µg/mL (≈ 0.476 µM)	–	–	–	0.4 µg/mL (≈ 0.476 µM)	> 100 µg/mL	> 100 µg/mL	–	–	–	≤ 0.05 µg/mL	50 µg/mL (≈ 59.5 µM)	> 100 µg/mL	MIC [1, 29]: ≤ 0.05 µg/mL; MIC ([2]; read-out: MIC): ≤ 0.05 µg/mL; MIC ([5]; Streptococcus pyogenes): > 100 µg/mL; MIC [6, 30]: > 100 µg/mL; MIC [10, 31]: 0.4 µg/mL (≈ 0.476 µM); MIC [11, 27]: > 100 µg/mL; MIC [12, 32]: 0.2 µg/mL (≈ 0.238 µM); MIC [13, 33]: 0.1 µg/mL (≈ 0.119 µM); MIC [17, 34]: ≤ 0.05 µg/mL; MIC [18, 28]: > 100 µg/mL; MIC ([19]; read-out: MIC): 50 µg/mL (≈ 59.5 µM); MIC ([20]; read-out: MIC): > 100 µg/mL; MIC [23, 35]: > 100 µg/mL; MIC [24, 36]: 25 µg/mL (≈ 29.8 µM)
CCC1OC(=O)CC(OC(=O)Cc2ccccc2)C(C)C(OC2OC(C)C(O)C(N(C)C)C2O)C(CC=O)CC(C)C(=O)C=CC(C)=CC1COC1OC(C)CC(OC)C1OC (centres unmarked) [Example 6, 3-O-phenylacetyl-4"-deoxydesmycosin]	≤ 0.05 µg/mL	≤ 0.05 µg/mL	0.1 µg/mL (≈ 0.114 µM)	–	> 100 µg/mL	> 100 µg/mL	> 100 µg/mL	0.2 µg/mL (≈ 0.229 µM)	0.4 µg/mL (≈ 0.458 µM)	0.1 µg/mL (≈ 0.114 µM)	≤ 0.05 µg/mL	0.1 µg/mL (≈ 0.114 µM)	–	> 100 µg/mL	0.1 µg/mL (≈ 0.114 µM)	50 µg/mL (≈ 57.2 µM)	> 100 µg/mL	0.1 µg/mL (≈ 0.114 µM)	50 µg/mL (≈ 57.2 µM)	> 100 µg/mL	MIC [4]: ≤ 0.05 µg/mL; MIC ([11]; Escherichia coli): > 100 µg/mL; MIC [15, 37]: > 100 µg/mL; MIC ([18]; Escherichia coli): > 100 µg/mL; MIC ([23]; ENTERITIDIS): > 100 µg/mL; MIC ([24]; Klebsiella pneumoniae): 25 µg/mL (≈ 28.6 µM)
CCC1OC(=O)CC(OC(=O)Cc2ccccc2)C(C)C(OC2OC(C)C(O)C(N(C)C)C2O)C(C)CC(C)C(=O)C=CC(C)=CC1COC1OC(C)CC(OC)C1OC (centres unmarked) [Example 10, 3-O-phenylacetyl-19-deformyl-4"-deoxydesmycosin]	≤ 0.05 µg/mL	≤ 0.05 µg/mL	0.1 µg/mL (≈ 0.118 µM)	–	> 100 µg/mL	> 100 µg/mL	> 100 µg/mL	0.1 µg/mL (≈ 0.118 µM)	3.1 µg/mL (≈ 3.66 µM)	0.2 µg/mL (≈ 0.236 µM)	≤ 0.05 µg/mL	0.1 µg/mL (≈ 0.118 µM)	–	> 100 µg/mL	0.4 µg/mL (≈ 0.473 µM)	100 µg/mL (≈ 118 µM)	> 100 µg/mL	≤ 0.05 µg/mL	25 µg/mL (≈ 29.5 µM)	> 100 µg/mL	MIC [4]: ≤ 0.05 µg/mL; MIC ([11]; Escherichia coli): > 100 µg/mL; MIC [15, 37]: > 100 µg/mL; MIC ([18]; Escherichia coli): > 100 µg/mL; MIC ([23]; ENTERITIDIS): > 100 µg/mL; MIC ([24]; Klebsiella pneumoniae): 12.5 µg/mL (≈ 14.8 µM)
CC[C@H]1OC(=O)C[C@@H](O)[C@H](C)[C@@H](O[C@@H]2O[C@H](C)[C@@H](O[C@H]3C[C@@](C)(O)[C@@H](O)[C@H](C)O3)[C@H](N(C)C)[C@H]2O)[C@@H](CC=O)C[C@@H](C)C(=O)/C=C/C(C)=C/[C@@H]1CO[C@@H]1O[C@H](C)[C@@H](O)[C@@H](OC)[C@H]1OC [Tylosin, reference compound]	≤ 0.05 µg/mL	≤ 0.05 µg/mL	–	≤ 0.05 µg/mL	> 100 µg/mL	> 100 µg/mL	> 100 µg/mL	0.8 µg/mL (≈ 0.873 µM)	0.8 µg/mL (≈ 0.873 µM)	0.2 µg/mL (≈ 0.218 µM)	0.4 µg/mL (≈ 0.437 µM)	0.4 µg/mL (≈ 0.437 µM)	> 100 µg/mL	> 100 µg/mL	0.2 µg/mL (≈ 0.218 µM)	> 100 µg/mL	> 100 µg/mL	0.1 µg/mL (≈ 0.109 µM)	50 µg/mL (≈ 54.6 µM)	> 100 µg/mL	MIC ([5]; Streptococcus pyogenes): > 100 µg/mL; MIC ([11]; Escherichia coli): > 100 µg/mL; MIC ([18]; Escherichia coli): > 100 µg/mL; MIC ([23]; ENTERITIDIS): > 100 µg/mL; MIC ([24]; Klebsiella pneumoniae): 50 µg/mL (≈ 54.6 µM)
